Experimental data published in patent US6942963B1, “Methods for identifying treatments for neurotoxicity in Alzheimer's disease caused by β-amyloid peptides” (Massachusetts Institute of Technology, priority 1997, dated 2005).
“And” between values parts separate entries of the source, which are not always exact repeats. Equal values may be shown once. “Also recorded” adds a separate entry of the source. Read-outs that look alike come from different tables or passages of the source. Non-standard residues stand in square brackets, D forms with d. No end group written: not given here.

Legend:
Format in all cases: cell-based, human
hNT cells [1] = test: Internal calcium concentration [Ca2+]int in hNT cells (fura-2) on exposure to β-amyloid peptide or test agent alone; settings: for effect of decoy peptide by itself on cytosolic calcium concentrations: decoy peptide alone at 20 μM, filtered stocks, Tyrode's/2 mM Ca; for [Ca^2+]int after exposure to unfiltered peptide: hNT cells in Tyr2Ca, peptide at 20 μM (βAP1-42 aggregated 37C, 24 hr), controls 80 nM and 50 nM; for % increase in [Ca^2+]int: unfiltered suspension in Tyr2Ca
[2] = tested on: βAP25-35-induced calcium influx, hNT cells; test: βAP25-35-induced calcium influx in hNT cells: effect of channel antagonists and decoy peptides; settings: for effect on increase in internal calcium concentration due to βAP25-35: decoy peptide mixed with βAP25-35 at ratio 1:1 (20 μM+20 μM), hNT cells; for effect on βAP25-35-induced calcium influx: βAP25-35 21 μM
hNT cells [3] = test: Membrane depolarization of hNT cells by aggregated Aβ1-42 (DiBAC4(3) fluorescence); settings: for % ΔF / Δ EM: aggregated Aβ1-42 20 μM
Description: Changes in membrane potential were measured using the fluorescent potentiometric probe DiBAC4(3), (Molecular Probes, Inc., Eugene, Oreg.). This dye, bis-(1,3-dibutylbarbituric acid)trimethine oxonol, detects membrane depolarization, because it enters depolarized cells and binds to intracellular proteins or membranes. […] Hyperpolarization results in extrusion of the anionic dye and thus a decrease in fluorescence. Our measurements use two dyes, fura-2 and DiBAC4(3), since these dyes have excitation wavelengths that are far apart, but have similar emission wavelengths. DiBAC4(3) was added to fura-2AM loaded hNT cells at a concentration of 100 nM in Tyr2Ca. Rapidly alternating measurements of fura-2 (excited at 340 & 380 nm) and DiBAC4(3) (excited at 490 nm) were performed using emission at 516 nm. Both dyes were measured using the special “Fura2-Fluo3” filter set 7400 from Chroma Technology (Brattleboro, Vt.), a Zeiss Axiovert 100 inverted microscope and a photometry system (model “Delta Ram” from Photon Technology International, Inc., Monmouth Junction, N.J.).
The bis-oxonol dye DiBAC4(3) was used as an indicator of transmembrane electrical potential changes (Langheinrich and Daut, J. Physiol. 502:397-408, 1997) when our hNT cells were treated with, for example, the β-amyloid peptide Aβ1-42. The use of this dye enabled us to monitor groups of 5-15 neurons, rather than single cells as would be the case with patch clamping methods. We expected great variability from cell to cell, as was found in our earlier patch clamp work (Sanderson et al., Brain Res. 744:7-14, 1997). The method has been used by many laboratories for the determination of membrane potentials in different cell types. Fluorescence is increased upon membrane depolarization as more dye enters the cytosol, resulting in increased binding to proteins (Braiuner et al., Biochim. Biophys. Acta 771:[…], 1984). Partitioning of bis-oxonol dye between the plasma membrane and the cytosol follows the Nernst equation (Langheinrich and Daut, 1997). Unless otherwise indicated, all measurements were carried out in Tyrode's solution containing 2 mM Ca.
We calibrated the gross fluorescence as a function of membrane potential by treating a culture of hNT neurons, bathed in Tyrode's 2Ca buffer with the usual 3 mM K^+, containing 97 nM DiBAC4(3), with Tyrode's 2Ca buffer containing 40 mM KCl. We measured the gross fluorescence at excitation=490 nm and emission=510 nm for the depolarization by KCl and for depolarization by the Aβ1-42 peptide. We used the formula proposed by Langheinrich and Daut, 1997: % ΔF=(1−Fmin/Fmax)*100=ΔEMmV
where Fmin=fluorescence before treatment, Fmax=fluorescence during treatment, ΔEM mV is the change in membrane potential brought about by the treatment. The calculation based on the expected depolarization by changing from 3 mM KCl to 40 MM KCl gave a value of ΔEM=3.8 mV/1% ΔF.
Groups of hNT neuronal cells (5-17) were exposed to Aβ1-42 (20 μM) that had been incubated at 37° C. for 48 hours; 97 nM DiBAC4(3) was present. Fluorescence was measured as described above; Ex=490 nm, Em=510 nm.

[4] = tested on: βAP1-42-induced calcium influx, hNT cells; test: βAP1-42 (Aβ1-42) aggregate-induced calcium influx in hNT cells: effect of decoy peptides and channel blockers
[5] = hNT cells, aggregated Aβ1-42 in Tyrode's medium without calcium

Compound: ^+NH3-TVIGTIGGG-CONH2 (H-[dT][dV][dI]G[dT][dI]GGG-NH2; SMILES CC[C@@H](C)[C@@H](NC(=O)[C@H](NC(=O)[C@H](N)[C@H](C)O)C(C)C)C(=O)NCC(=O)N[C@@H](C(=O)N[C@@H](C(=O)NCC(=O)NCC(=O)NCC(N)=O)[C@H](C)CC)[C@H](C)O) [DP3]
- effect of decoy peptide by itself on cytosolic calcium concentrations (hNT cells [1]; hNT cells): raise cytosolic calcium concentrations somewhat
- effect of unfiltered decoy peptide alone on [Ca^2+]int (hNT cells [1]; hNT cells, unfiltered DP3 at 20 μM): an increase in [Ca^2+]int
- effect on calcium influx when decoy peptide added prior to βAP25-35 aggregation ([2]; DP3 in Tyrode's/2 mM Ca for 1 hour, then βAP25-35 added, both 20 mM [sic]): reduced the calcium influx induced by βAP25-35; also recorded: can reduce the βAP25-35-induced Ca^2+ influx
- effect on increase in internal calcium concentration due to βAP25-35 [2]: reduced or abolished the increase in the internal calcium concentration
- effect on ability of βAP25-35 to induce influx of calcium ([2]; unfiltered DP3 mixed with βAP25-35 at molar ratios of 1:2 or greater): marked decrease in the ability of βAP25-35 to induce influx of calcium
- effect on calcium influx when decoy peptide added after βAP25-35 aggregation ([2]; βAP25-35 aggregated 2 hours before DP3 addition, both 20 mM [sic]): did not reduce the induction of calcium influx

Compound: GSNKGAIIGLM [βAP25-35]
- [Ca^2+]int after exposure to unfiltered peptide (hNT cells [1]): approximately 200 nM
- internal calcium concentration after restoring external calcium to 2 mM without extra peptide (hNT cells [1]; hNT cells previously exposed to 50 μM βAP25-35 in Tyrode's/0 mM Ca): ~200 % of control levels
- [Ca^2+]int relative to control (hNT cells [1]; hNT cells, 21 μM βAP25-35, single experiment, 4 cells): 270 % of control
- internal calcium in external Tyrode's solution without calcium (hNT cells [1]; hNT cells, Tyrode's/0 mM Ca plus 50 μM βAP25-35, even after 15 minutes): no increase in internal calcium
- % increase in [Ca^2+]int (hNT cells [1]; hNT cells, [βAP25-35] 10 μM): 170 ± 85%
- % increase in [Ca^2+]int (hNT cells [1]; hNT cells, [βAP25-35] 20 μM): 286 ± 179%
- % increase in [Ca^2+]int (hNT cells [1]; hNT cells, [βAP25-35] 50 μM): 343 ± 245%
- % increase in [Ca^2+]int (hNT cells [1]; hNT cells, [βAP25-35] 130 μM): 623 ± 555%
- % increase in [Ca^2+]int (hNT cells [1]; hNT cells, [βAP25-35] 172 μM): 367 ± 108%
- % increase in [Ca^2+]int (hNT cells [1]; hNT cells, [βAP25-35] 334 μM): 508 ± 561%
- % increase in [Ca^2+]int (hNT cells [1]; hNT cells, [βAP25-35] 112-114 μM): 366 ± 260%

Compound: βAP1-42: β-amyloid peptide, SEQ ID NO:20, purchased from Quality Controlled Biochemicals
- calcium influx by Aβ1-42 not incubated at 37° C. (hNT cells [1]; Aβ1-42 sample not incubated (protofibrils)): did not produce the characteristic calcium influx
- [Ca^2+]int after exposure to unfiltered peptide (hNT cells [1]): approximately 94 nM
- cytosolic calcium level after spontaneous desensitization (hNT cells [1]; hNT cells, aggregated Aβ1-42): ~200 % of control
- new plateau calcium level relative to control values (hNT cells [1]; hNT cells, aggregated Aβ1-42, other experiments with longer time): about twofold
- rise in cytosolic calcium without external calcium (hNT cells [1]; [5]): almost no rise in cytosolic calcium
- cytosolic calcium upon addition of aggregated Aβ1-42 (hNT cells [1]; hNT cells, fura-2, Tyrode's/2Ca): large increase in cytosolic calcium
- concentration dependence of calcium influx (hNT cells [1]; hNT cells, increasing βAP1-42 concentration): strong concentration dependence
- % ΔF (hNT cells [3]; [Ca^2+] 0 mM, Na^+): 51.1%
- % ΔF (hNT cells [3]; [Ca^2+] 0.4 mM, Na^+): 8.3%
- Δ EM (hNT cells [3]; [Ca^2+] 0.4 mM, Na^+): +31.6 mV
- % ΔF (hNT cells [3]; [Ca^2+] 2 mM, ext. cation NMDG^+): 44.1%
- % ΔF (hNT cells [3]; [Ca^2+] 2 mM, ext. cation Na^+, no addition): 15.7% and 14.8%
- % ΔF (hNT cells [3]; [Ca^2+] 2 mM, ext. cation TEA^+): 44.8%
- % ΔF (hNT cells [3]; [Ca^2+] 10 mM, Na^+): 15.3%
- Δ EM (hNT cells [3]; [Ca^2+] 10 mM, Na^+): +58.3 mV
- membrane depolarization caused by pre-aggregated Aβ1-42 (hNT cells [3]; cultured hNT neuronal cells, Tyrode's/2Ca): large membrane depolarization
- membrane depolarization with external Na^+ replaced (hNT cells [3]; external Na^+ replaced with equal concentration of TEA^+ or NMDG^+): large membrane depolarization
- membrane depolarization without external calcium (hNT cells [3]; [5]): greatly increased membrane depolarization

Compound: ^+NH3.A.G.V.I.S.I.G.G.G (AGVISIGGG; not fully specified; printed as ^+NH3.A.G.V.I.S.I.G.G.G) [DP7]
- effect of decoy peptide by itself on cytosolic calcium concentrations (hNT cells [1]; hNT cells): raise cytosolic calcium concentrations somewhat
- effect on increase in internal calcium concentration due to βAP25-35 [2]: reduced or abolished the increase in the internal calcium concentration

Compound: [Cl][Al]([Cl])[Cl] [AlCl3]
- calcium influx induced by agent by itself (hNT cells [1]; hNT neuronal cells, from external calcium sources): powerfully induces calcium influx

Compound: O=C(O)CN(CCOCCOCCN(CC(=O)O)CC(=O)O)CC(=O)O [EGTA]
- internal calcium with chelator in external solution in addition to βAP25-35 ([2]; 20 mM EGTA in addition to βAP25-35 peptide): decreased internal calcium to control levels

Compound: NC1=N[C@H](O)[C@H]2[C@H]3O[C@]4(O)O[C@@H]([C@@H](O)[C@@]2(N1)[C@@H]4O)[C@]3(O)CO [TTX, tetrodotoxin]
- effect on rise in cytosolic calcium caused by aggregated Aβ1-42 [4]: allowed both membrane depolarization and a rise in cytosolic calcium levels; also recorded: the rise in cytosolic calcium
- % ΔF in presence of addition (hNT cells [3]): 17.3%
- effect on membrane depolarization by aggregated Aβ1-42 (hNT cells [3]): allowed both membrane depolarization and a rise in cytosolic calcium levels; also recorded: allows both membrane depolarization
- Δ EM in presence of addition (hNT cells [3]): +65.7 mV

Compound: ^+NH3.T.G.I.I.A.S.G.G.G. (H-[dT]G[dI][dI][dA][dS]GGG) [DP4]
- effect of decoy peptide by itself on cytosolic calcium concentrations (hNT cells [1]; hNT cells): no effect on cytosolic calcium concentrations
- effect on increase in internal calcium concentration due to βAP25-35 [2]: reduced or abolished the increase in the internal calcium concentration

Compound: ^+NH3.T.T.I.V.S.T.G.G.G (H-[dT][dT][dI][dV][dS][dT]GGG) [DP6]
- effect of decoy peptide by itself on cytosolic calcium concentrations (hNT cells [1]; hNT cells): raise cytosolic calcium concentrations somewhat
- effect on increase in internal calcium concentration due to βAP25-35 [2]: reduced or abolished the increase in the internal calcium concentration

Compound: NC(CCCP(=O)(O)O)C(=O)O (racemic) [DL-AP5, DL-2-amino-5-phosphonovaleric acid]
- block of calcium influx into hNT neuronal cells caused by βAP25-35 ([2]; concentration not stated): lack of blocking effect
- effect on βAP25-35-induced calcium influx ([2]; DL-AP5 at 50 μM): failed to prevent
- effect on βAP25-35-induced calcium influx ([2]; DL-AP5 at 200 μM): failed to prevent

Compound: O=c1[nH]c2cc([N+](=O)[O-])c([N+](=O)[O-])cc2[nH]c1=O [DNQX, 6,7-dinitroquinoxaline-2,3(1H, 4H)-dione]
- effect on βAP25-35-induced calcium influx ([2]; DNQX at 8 μM, applied together): completely prevented

Compound: ^+NH3.P.V.P.R^+.P.I.P.A.P.COO^− (H-[dP][dV][dP][dR][dP][dI][dP][dA][dP]-OH; also: modified) [DP17]
- effect on βAP1-42 calcium influx ([4]; βAP1-42 25 μM coincubated with equimolar decoy peptide at 37° C. for 44 hours, hNT cells): did not reduce the effect of βAP1-42 on the calcium influx

Compound: [Cl-].[Cl-].[Mg+2] [magnesium chloride]
- block of calcium influx into hNT neuronal cells caused by βAP25-35 [2]: blocks the influx of Ca^2+; also recorded: can be blocked
- effect on βAP25-35-induced influx of calcium [2]: totally blocked

Compound: NC(CO)(CO)CO [TRIS^+, Tromethamine]
- effect on membrane depolarization by aggregated Aβ1-42 (hNT cells [3]; hNT cells, 10 mM TRIS^+): moderate decrease in membrane depolarization; also recorded: partially blocks membrane depolarization
